This passage reports IC50, half-life and Activity results from ChEMBL document CHEMBL1152416, “N-terminal-prolonged vinyl ester-based peptides as selective proteasome beta1 subunit inhibitors” (Bioorg Med Chem, 2009).

The nature of data set [1]: Inhibition of trypsin-like activity of proteasome from human PBMC after 30 mins by fluorimetry. It counts as subcellular.
Data set [2] is described as follows: Inhibition of post acidic activity of proteasome from human LCL after 30 mins by fluorimetry. It counts as subcellular.
Data set [3] can be described thus: Inhibition of trypsin-like activity of proteasome from human LCL after 30 mins by fluorimetry. It counts as subcellular.
The nature of data set [4]: Inhibition of […] activity of proteasome from human LCL after 30 mins by fluorimetry. It counts as subcellular.
Data set [5] is described as follows: Inhibition of post acidic activity of proteasome from human PBMC after 30 mins by fluorimetry. It counts as subcellular.
Data set [6] in a line: Inhibition of […] activity of proteasome from human PBMC after 30 mins by fluorimetry. It counts as subcellular.
A short description of data set [7]: Inhibition of trypsin-like activity of proteasome in human PBMC after 30 mins by cell based assay. As to conditions: 0.5 h.
For another data set, the species on record is Homo sapiens. Briefly: Stability in human plasma assessed as half life.
A short description of data set [8]: Inhibition of post acidic activity of proteasome from human PBMC after 30 mins by cell based assay. As to conditions: 0.5 h.
Data set [9] can be described thus: Inhibition of […] activity of proteasome from human PBMC after 30 mins by cell based assay. As to conditions: 0.5 h.
A short description of data set [10]: Antiproliferative activity against human LCL cells assessed as cell viability at <10 uM after 3 days by trypan blue assay. It counts as cell-based. Conditions: 72 h.
Data set [11] has as its system JIYOYE. The experiment in a line: Antiproliferative activity against human Jijoye cells assessed as cell viability at <10 uM after 3 days by trypan blue assay. It counts as functional, cell-based.
The test system of data set [12] is JIYOYE. The experiment in a line: Antiproliferative activity against human Jijoye cells assessed as cell viability at 10 uM after 3 days by trypan blue assay. It counts as functional, cell-based.
Data set [13] in a line: Antiproliferative activity against human LCL cells assessed as cell viability at 10 uM after 3 days by trypan blue assay. It counts as cell-based. As to conditions: 72 h.

Where a SMILES comes first, the peptide text is derived from it. The star is where a group is joined. Cbz = O=C(OCc1ccccc1)*; X1 = C=CO*

By IC50 is commonly meant the concentration needed to halve the response being measured. A lower IC50 goes with greater potency in that assay. As a reminder, the half-life is the time in which the quantity being followed falls by half.

Turning to `C=COC(=O)[C@H](CC(C)C)NC(=O)[C@H](CC(C)C)NC(=O)[C@H](CC(C)C)NC(=O)CCCCCCNC(=O)OCc1ccccc1`, the IC50 in data set [1] was greater than 10 µM; in data set [2], 1.67 µM; in [3], greater than 10 µM; in data set [4], greater than 10 µM; in data set [5], 0.165 µM; in data set [6], greater than 10 µM.
Regarding `C=COC(=O)[C@H](CC(C)C)NC(=O)[C@H](CO)NC(=O)[C@@H](NC(=O)CCCCNC(=O)OCc1ccccc1)C(C)C`, the concentration for half-maximal inhibition (IC50) was greater than 10 µM in data set [1]; 1.54 µM in data set [2]; greater than 10 µM in [3]; greater than 10 µM in data set [7]; greater than 10 µM in data set [4]; 0.231 µM in [5]. Besides, the half-inhibitory concentration (IC50) in [8] was 0.45 µM; in data set [9], greater than 10 µM; in data set [6], greater than 10 µM. For the same compound, in the data set filed under Homo sapiens, the half-life is greater than 6 h.
Turning to `C=COC(=O)[C@H](CC(C)C)NC(=O)[C@H](CO)NC(=O)[C@@H](NC(=O)CCCCCCNC(=O)OCc1ccccc1)C(C)C`, the concentration for half-maximal inhibition (IC50) in data set [1] was greater than 10 µM; in [2] it was 2.71 µM; in data set [3] it was greater than 10 µM; in data set [7], greater than 10 µM; in data set [4] it was greater than 10 µM; in data set [5] it was 0.186 µM. The half-inhibitory concentration (IC50) in [8] was 0.237 µM; in data set [9], greater than 10 µM; in [6], greater than 10 µM. The half-life in the data set listed under Homo sapiens is greater than 6 h.
As for `C=COC(=O)[C@H](CC(C)C)NC(=O)[C@H](CC(C)C)NC(=O)[C@H](CC(C)C)NC(=O)CCCCNC(=O)OCc1ccccc1`, the half-inhibitory concentration (IC50) in [1] was 6.05 µM; in [2], 0.87 µM; in data set [3] it was greater than 10 µM; in data set [7], 9.54 µM; in [4] it was greater than 10 µM; in data set [5], 0.078 µM. Besides, the half-maximal inhibitory concentration (IC50) in data set [8] is 0.128 µM; in [9] it was greater than 10 µM; in [6] it was greater than 10 µM. In the data set filed under Homo sapiens, the half-life was greater than 6 h.
For the compound `C=COC(=O)[C@H](CC(C)C)NC(=O)[C@H](CC(C)C)NC(=O)[C@H](CC(C)C)NC(=O)CNC(=O)OCc1ccccc1` (Cbz-GLLL-X1), the half-inhibitory concentration (IC50) in data set [1] is greater than 10 µM; in [2] it was greater than 10 µM; in [3], greater than 10 µM; in data set [4], greater than 10 µM; in [5], 0.545 µM; in [6] it was greater than 10 µM.
`C=COC(=O)[C@H](CC(C)C)NC(=O)[C@H](CC(C)C)NC(=O)[C@H](CC(C)C)NC(=O)CCCCCNC(=O)OCc1ccccc1`: the half-inhibitory concentration (IC50) is 5.98 µM in [1]; 1.08 µM in [2]; greater than 10 µM in data set [3]; 8.86 µM in [7]; greater than 10 µM in data set [4]; 0.053 µM in [5]. Also, the values for the 50% inhibitory concentration (IC50) in data set [8], in data set [9] and in [6] were 0.086 µM, greater than 10 µM and greater than 10 µM, respectively. Also, the Activity entry in [10] is “Non-toxic”; in the data set on JIYOYE [11], “Non-toxic”; with JIYOYE [12], “Toxic”; in data set [13], “Toxic”. In the data set filed under Homo sapiens, the half-life was greater than 6 h.
As to `C=COC(=O)[C@H](CC(C)C)NC(=O)[C@H](CO)NC(=O)[C@@H](NC(=O)CNC(=O)OCc1ccccc1)C(C)C` (Cbz-GVSL-X1), the half-inhibitory concentration (IC50) in data set [1] was greater than 10 µM; in [2], greater than 10 µM; in data set [3] it was greater than 10 µM; in [4], greater than 10 µM; in data set [5], 2.89 µM; in data set [6], greater than 10 µM.
In the case of `CC(C)C[C@@H](C=O)NC(=O)[C@H](CC(C)C)NC(=O)[C@H](CC(C)C)NC(=O)OCc1ccccc1` [MG-132] (Cbz-Leu-Leu-Leu-aldehyde), the half-inhibitory concentration (IC50) in data set [1] was 0.911 µM; in data set [2], greater than 10 µM; in data set [3] it was 1.08 µM; in [4], 0.002 µM; in data set [5], greater than 10 µM; in data set [6], 0.023 µM.
Consider `C=COC(=O)[C@H](CC(C)C)NC(=O)[C@H](CC(C)C)NC(=O)[C@H](CC(C)C)NC(=O)CCCNC(=O)OCc1ccccc1`, for which the 50% inhibitory concentration (IC50) in [1] is 7.23 µM; in data set [2] it was 2.07 µM; in data set [3], greater than 10 µM; in data set [7] it was greater than 10 µM; in [4] it was greater than 10 µM; in data set [5], 0.208 µM. The half-maximal inhibitory concentration (IC50) was 0.33 µM in [8], greater than 10 µM in [9] and greater than 10 µM in data set [6]. Further, the half-life in the data set listed under Homo sapiens is greater than 6 h.
Consider `C=COC(=O)[C@H](CC(C)C)NC(=O)[C@H](CO)NC(=O)[C@@H](NC(=O)CCCCCNC(=O)OCc1ccccc1)C(C)C`, for which the IC50 is greater than 10 µM in data set [1]; 1.39 µM in [2]; greater than 10 µM in data set [3]; greater than 10 µM in data set [7]; greater than 10 µM in data set [4]; 0.198 µM in data set [5]. Further, the figures for the IC50 in data set [8], in data set [9] and in data set [6] were 0.41 µM, greater than 10 µM and greater than 10 µM, respectively. Also, the half-life in the data set listed under Homo sapiens was greater than 6 h.
As to `C=COC(=O)[C@H](CC(C)C)NC(=O)[C@H](CO)NC(=O)[C@@H](NC(=O)CCCCCCCNC(=O)OCc1ccccc1)C(C)C`, the concentration for half-maximal inhibition (IC50) was greater than 10 µM in data set [1]; 5.64 µM in data set [2]; greater than 10 µM in data set [3]; greater than 10 µM in data set [7]; greater than 10 µM in [4]; 0.175 µM in data set [5]. Besides, the IC50 was 0.219 µM in [8], greater than 10 µM in data set [9] and greater than 10 µM in [6]. The Activity result is “Non-toxic” in [10], “Non-toxic” in the data set with JIYOYE [11], “Toxic” in the data set on JIYOYE [12] and “Toxic” in data set [13]. Besides, in the data set filed under Homo sapiens, the half-life was greater than 6 h.
As for `C=COC(=O)[C@H](CC(C)C)NC(=O)[C@H](CC(C)C)NC(=O)[C@H](CC(C)C)NC(=O)CCCCCCCNC(=O)OCc1ccccc1`, the 50% inhibitory concentration (IC50) was greater than 10 µM in [1]; 2.43 µM in data set [2]; greater than 10 µM in [3]; greater than 10 µM in data set [4]; 0.487 µM in data set [5]; greater than 10 µM in data set [6].
For the compound `C=COC(=O)[C@H](CC(C)C)NC(=O)[C@H](CO)NC(=O)[C@@H](NC(=O)CCNC(=O)OCc1ccccc1)C(C)C`, the IC50 is greater than 10 µM in data set [1]; greater than 10 µM in data set [2]; greater than 10 µM in data set [3]; greater than 10 µM in [4]; 0.831 µM in [5]; greater than 10 µM in data set [6].
Take `C=COC(=O)[C@H](CC(C)C)NC(=O)[C@H](CC(C)C)NC(=O)[C@H](CC(C)C)NC(=O)CCNC(=O)OCc1ccccc1`: the IC50 in data set [1] is greater than 10 µM; in [2], 2.34 µM; in data set [3], greater than 10 µM; in data set [7], greater than 10 µM; in [4], greater than 10 µM; in data set [5], 0.213 µM. For the same compound, the 50% inhibitory concentration (IC50) in data set [8] was 0.32 µM; in data set [9], greater than 10 µM; in data set [6], greater than 10 µM. For the same compound, the half-life in the data set filed under Homo sapiens was greater than 6 h.
Consider `C=COC(=O)[C@H](CC(C)C)NC(=O)[C@H](CO)NC(=O)[C@@H](NC(=O)CCCNC(=O)OCc1ccccc1)C(C)C`, for which the half-inhibitory concentration (IC50) in data set [1] is greater than 10 µM; in [2] it was 6.29 µM; in data set [3], greater than 10 µM; in data set [4], greater than 10 µM; in data set [5] it was 0.745 µM; in data set [6], greater than 10 µM.
With `CC[C@H](C)[C@H](NC(=O)[C@H]([C@@H](C)CC)N(C)C(C)=O)C(=O)N[C@H](C(=O)N[C@@H](CC(C)C)C(=O)[C@@]1(C)CO1)[C@@H](C)O` [EPOXOMYCIN], the IC50 in data set [1] is 0.758 µM; in data set [4], 0.005 µM; in [5], greater than 10 µM; in data set [6], 0.009 µM.
